Where a name gives a salt, the structure may show the parent alone.
Test system: DGAT
Assay: DGAT Phospholipid FlashPlate Assay
Type: biochemical
Details: DGAT pellet, DAG-coated PL-FlashPlate, 14C-Pal-CoA, 37° C. for 1 hour; read-out: DGAT Inhibition Activity IC50
Protocol: DGAT Phospholipid FlashPlate Assay
Materials for the assay were: PL-FlashPlate: Phospholipid FlashPlates from PerkinElmer, catalog number SMP108; DAG (1,2-Dioleoyl-sn-glycerol) 10 mM suspended in water containing 0.1% Triton X-100; ^14C-Pal-CoA (palmitoyl coenzyme A, [palmitoyl-1-^14C]) from PerkinElmer, catalog number NEC-555 with a specific activity of 55 mCi/mmol; and DGAT pellet, with a protein concentration of 9.85 mg/ml.
Aqueous buffers were prepared or purchased as follows: The coating buffer (CB) was purchased from PerkinElmer, catalog number SMP900A; the reaction buffer (RB) was 50 mM Tris-HCl, pH 7.5, 100 mM NaCl, 0.01% BSA in water; the washing buffer (WB) is 50 mM Tris-HCl, pH 7.5, 100 mM NaCl, 0.05% deoxycholic acid sodium salt in water; the dilution buffer (DB) was 50 mM Tris-HCl, pH 7.5, 100 mM NaCl, 1 mM EDTA, 0.2% Triton X-100 in water.
1,2-Dioleoyl-sn-glycerol (DAG, 10 mmoles) was diluted to 500 μM with coating buffer (CB). The diluted DAG solution was then added to 384-well PL-FlashPlates at 60 μl per well, and incubated at room temperature for 2 days. The coated plates were then washed twice with washing buffer (WB) before use. Test compounds were serial diluted to 2000, 666.7, 222.2, 74.1, 24.7, 8.2, 2.7 and 0.9 μM in 100% DMSO. Diluted compound were further diluted 10 fold with reaction buffer (RB). ^14C-Pal-CoA was diluted to 8.3 μM with RB. The DGAT pellet was diluted to 0.13 mg protein/ml with dilution buffer (DB) immediately before it was added to the PL-FlashPlates to start the reaction. 20 μl of the RB-diluted compounds (or 10% DMSO in RB for Total and Blank), 15 μl of RB diluted 14C-Pal-CoA and 15 μl of DB diluted DGAT pellet (DB without DGAT for Blanks) were transferred to each well of the PL-FlashPlates. The reaction mixtures were incubated at 37° C. for 1 hour. The reactions were stopped by washing 3 times with WB. Plates were sealed with Top-seal and read on a Topcount instrument.
Calculation of IC50: The IC50 values for each compound were generated using an Excel template. The Topcount rpm readings of Total and Blank were used as 0% and 100% inhibition. The percent inhibition values of reactions in the presence of compounds were calculated, and plotted against compound concentrations. All data were fitted into a Dose Response One Site model (4 parameter logistic model) as the following: (A+((B−A)/(1+((x/C)^D)))), with A and B as the bottom and top of the curve (highest and lowest inhibition), respectively, and C as IC50 and D as Hill Coefficient of the compound.

Row | SMILES | IC50 [nM]
1 | CCn1c(C(=O)Nc2ccc(N3CCN(C(=O)[C@H]4CC[C@H](C(=O)OCc5ccccc5)CC4)CC3)nc2)cc2c(OC)cccc21 [Example 27, trans-4-(4-{5-[(1-Ethyl-4-methoxy-1H-indole-2-carbonyl)-amino]-pyridin-2-yl}-piperazine-1-carbonyl)-cyclohexanecarboxylic acid benzyl ester] | 826
2 | CCn1c(C(=O)Nc2ccc(N3CCN(C(=O)[C@H]4CC[C@H](C(=O)O)CC4)CC3)nc2)cc2c(OC)cccc21 [Example 28, trans-4-(4-{5-[(1-Ethyl-4-methoxy-1H-indole-2-carbonyl)-amino]-pyridin-2-yl}-piperazine-1-carbonyl)-cyclohexanecarboxylic acid] | 385
3 | CCOc1cccc2c1cc(C(=O)Nc1ccc(N3CCN(C(=O)[C@H]4CC[C@H](C(=O)O)CC4)CC3)cc1)n2CC [Example 29, trans-4-(4-{4-[(4-Ethoxy-1-ethyl-1H-indole-2-carbonyl)-amino]-phenyl}-piperazine-1-carbonyl)-cyclohexanecarboxylic acid] | 980
4 | CCn1c(C(=O)Nc2ccc(C3CCN(C(=O)[C@H]4CC[C@H](C(=O)O)CC4)CC3)cc2)cc2c(C)cccc21 [Example 30, trans-4-(4-{4-[(1-Ethyl-4-methyl-1H-indole-2-carbonyl)-amino]-phenyl}-piperidine-1-carbonyl)-trans-1,4-cyclohexanecarboxylic acid] | 824
5 | CCOc1cccc2c1cc(C(=O)Nc1ccc(N3CCN(C(=O)[C@@H]4CCC[C@H]4C(=O)O)CC3)cc1)n2CC [Example 31, (1R,2R)-2-(4-{4-[(4-Ethoxy-1-ethyl-1H-indole-2-carbonyl)-amino]-phenyl}-piperazine-1-carbonyl)-cyclopentanecarboxylic acid] | 380
6 | CCOc1cccc2c1cc(C(=O)Nc1ccc(C3CCN(C(=O)[C@@H]4CCC[C@H]4C(=O)O)CC3)cc1)n2CC [Example 32, (1R,2R)-2-(4-{4-[(4-Ethoxy-1-ethyl-1,1-indole-2-carbonyl)-amino]-phenyl}-piperidine-1-carbonyl)-cyclopentanecarboxylic acid] | 495
7 | CCn1c(C(=O)Nc2ccc(N(C)CCOC)nc2)cc2cc(OC(F)(F)F)ccc21 [Example 33, 1-Ethyl-5-trifluoromethoxy-1H-indole-2-carboxylic acid {6-[(2-methoxy-ethyl)-methyl-amino]-pyridin-3-yl}-amide hydrochloride] | 662
8 | COCCN(C)c1ccc(NC(=O)c2cc3ccccc3s2)cn1 [Example 34, Benzo[b]thiophene-2-carboxylic acid {6-[(2-methoxy-ethyl)-methyl-amino]-pyridin-3-yl}-amide] | 683
9 | COCCN(C)c1ccc(NC(=O)c2sc3ccccc3c2C)cn1 [Example 35, 3-Methyl-benzo[b]thiophene-2-carboxylic acid {6-[(2-methoxy-ethyl)-methyl-amino]-pyridin-3-yl}-amide hydrochloride] | 351
10 | COCCN(C)c1ncc(NC(=O)c2sc3ccccc3c2C)cn1 [Example 36, 3-Methyl-benzo[b]thiophene-2-carboxylic acid {2-[(2-methoxy-ethyl)-methyl-amino]-pyrimidin-5-yl}-amide hydrochloride] | 856
11 | CCn1c(C(=O)Nc2ccc(N(C)CCOC)nc2)cc2ccccc21 [Example 37, 1-Ethyl-1H-indole-2-carboxylic acid {6-[(2-methoxy-ethyl)-methyl-amino]-pyridin-3-yl}-amide hydrochloride] | 425
12 | CCn1c(C(=O)Nc2ccc(N(C)CCOC)nc2)cc2c(OC)cccc21 [Example 38, 1-Ethyl-4-methoxy-1H-indole-2-carboxylic acid {6-[(2-methoxy-ethyl)-methyl-amino]-pyridin-3-yl}-amide hydrochloride] | 102
13 | CCn1c(C(=O)Nc2ccc(N(C)CCOC)nc2)cc2cc(OC)ccc21 [Example 39, 1-Ethyl-5-methoxy-1H-indole-2-carboxylic acid {6-[(2-methoxy-ethyl)-methyl-amino]pyridin-3-yl}-amide hydrochloride] | 312
14 | CCn1c(C(=O)Nc2ccc(N(C)CCOC)nc2)cc2cc(OCc3ccccc3)ccc21 [Example 40, 5-Benzyloxy-1-ethyl-1H-indole-2-carboxylic acid {6-[(2-methoxy-ethyl)-methyl-amino]-pyridin-3-yl}-amide] | 797
15 | CCCn1c(C(=O)Nc2ccc(N(C)CCOC)nc2)cc2ccccc21 [Example 41, 1-Propyl-1H-indole-2-carboxylic acid {6-[(2-methoxy-ethyl)-methyl-amino]-pyridin-3-yl}-amide hydrochloride] | 937
16 | COCCN(C)c1ccc(NC(=O)c2cc3cc(Cl)ccc3n2C)cn1 [Example 42, 5-Chloro-1-methyl-1H-indole-2-carboxylic acid {6-[(2-methoxy-ethyl)-methyl-amino]-pyridin-3-yl}-amide hydrochloride] | 750
17 | CCn1c(C(=O)Nc2ccc(N(C)CCOC)nc2)cc2cc(Cl)ccc21 [Example 43, 5-Chloro-1-ethyl-4H-indole-2-carboxylic acid {6-[(2-methoxy-ethyl)-methyl-amino]-pyridin-3-yl}-amide hydrochloride] | 161
18 | CCOc1cccc2c1cc(C(=O)Nc1ccc(N3CCN(C(=O)CC(C)(C)C(=O)O)CC3)cc1)n2CC [Example 44, 4-(4-{4-[(4-Ethoxy-1-ethyl-1H-indole-2-carbonyl)-amino]-phenyl}-piperazin-1-yl)-2,2-dimethyl-4-oxo-butyric acid] | 489
19 | CCn1c(C(=O)Nc2ccc(N(C)C3CC3)nc2)cc2cc(Cl)ccc21 [Example 45, 5-Chloro-1-ethyl-1H-indole-2-carboxylic acid [6-(cyclopropyl-methyl-amino)-pyridin-3-yl]-amide] | 668
20 | CCOC(=O)N1CC[C@H](Nc2ccc(NC(=O)c3cc4cc(Br)ccc4s3)cn2)C1 [Example 46, (S)-3-{5-[(5-Bromo-benzo[b]thiophene-2-carbonyl)-amino]pyridin-2-ylamino}-pyrrolidine-1-carboxylic acid ethyl ester hydrochloride] | 303
21 | CCOC(=O)N1CC[C@H](Nc2ccc(NC(=O)c3cc4c(Cl)cccc4s3)cn2)C1 [Example 47, (S)-3-{5-[(4-Chloro-benzo[b]thiophene-2-carbonyl)-amino]pyridin-2-ylamino}-pyrrolidine-1-carboxylic acid ethyl ester hydrochloride] | 280
22 | CCOC(=O)N1CC[C@H](Nc2ccc(NC(=O)c3cc4ccccc4s3)cn2)C1 [Example 48, (S)-3-{5-[(Benzo[b]thiophene-2-carbonyl)-amino]-pyridin-2-ylamino}-pyrrolidine-1-carboxylic acid ethyl ester hydrochloride] | 396
23 | CCOC(=O)N1CC[C@H](Nc2ccc(NC(=O)c3cc4cc(C(F)(F)F)ccc4s3)cn2)C1 [Example 49, (S)-3-{5-[(5-Trifluoromethyl-benzo[b]thiophene-2-carbonyl)-amino]-pyridin-2 ylamino}-pyrrolidine-1-carboxylic acid ethyl ester hydrochloride] | 594
24 | CCOC(=O)N1CC[C@H](Nc2ccc(NC(=O)c3cc4cc(Br)ccc4n3CC)cn2)C1 [Example 50, (S)-3-{5-[(5-Bromo-1-ethyl-1H-indole-2-carbonyl)-amino]-pyridin-2-ylamino}-pyrrolidine-1-carboxylic acid ethyl ester hydrochloride] | 929
25 | CCOC(=O)N1CC[C@H](Nc2ccc(NC(=O)c3cc4cc(OC)ccc4n3CC)cn2)C1 [Example 51, (S)-3-{5-[(1-Ethyl-5-methoxy-1H-indole-2-carbonyl)-amino]-pyridin-2-ylamino}-pyrrolidine-1-carboxylic acid ethyl ester hydrochloride] | 343
26 | CCOC(=O)N1CC[C@H](Nc2ccc(NC(=O)c3cc4c(OC)cc(OC)cc4n3CC)cn2)C1 [Example 52, (S)-3-{5-[(1-Ethyl-4,6-dimethoxy-1H-indole-2-carbonyl)-amino]-pyridin-2-ylamino}pyrrolidine-1-carboxylic acid ethyl ester] | 229
